TGI data for 14 compounds are collected here from PubChem BioAssay (NCI).

Test systems include ACHN renal; HCT-15 colon; HT29 colon; IGROV1 ovarian; NCI-H226 lung; NCI-H23 lung; SF-268 CNS; SW-620 colon; UACC-62 melanoma; HOP-62 NSCLC.
Common to all, as to test: NCI tumour cell line growth inhibition, 48 h

Each structure is given as a SMILES string.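 Exposure lasted 48 hours, with cells grown in 96-well plates and compounds tested at five concentrations. At the TGI there is no net growth.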

`COc1cccc2cc(C(N)=O)c(=N)oc12`: the TGI in the experiment on ACHN renal, in the experiment with HCT-15 colon, with HT29 colon, with IGROV1 ovarian, in the experiment on NCI-H226 lung and in the experiment on NCI-H23 lung was above 100 µM each time. Also, the TGI in the experiment on SF-268 CNS, with SW-620 colon and in the experiment with UACC-62 melanoma was above 100 µM in each case.

Regarding `CC(C)OP(=O)(CN(C)/C(F)=N\C(F)(F)F)OC(C)C`, the TGI in the experiment with ACHN renal, in the experiment with HCT-15 colon, in the experiment on HOP-62 NSCLC, with HT29 colon, in the experiment on IGROV1 ovarian and with NCI-H226 lung was above 100 µM each time. Besides, the TGI in the experiment with NCI-H23 lung, in the experiment with SF-268 CNS, in the experiment with SW-620 colon and in the experiment with UACC-62 melanoma was above 100 µM each time.

Consider `CC(C)C(C/C=C1/CC(CO)(COC(=O)CC(C(C)C)C(C)C)OC1=O)C(C)C` (configuration not stated), for which the TGI in the experiment with ACHN renal is 18.2 µM; in the experiment with HCT-15 colon it was 30.3 µM; with HOP-62 NSCLC, 18.3 µM; in the experiment on HT29 colon, 30.5 µM; in the experiment on IGROV1 ovarian, 31.1 µM; in the experiment with NCI-H226 lung, 22.6 µM. For the same compound, the TGI in the experiment on NCI-H23 lung came out at 29.9 µM; with SF-268 CNS it was 23.1 µM; with SW-620 colon, 18.1 µM; in the experiment on UACC-62 melanoma it was 30.1 µM.

As to `COc1ccc2c3c1OC1C(=O)C=CC4(O)C(C2)NCC[C@@]314` (some centres not stated), the TGI worked out at 12.6 µM with ACHN renal; 11.3 µM in the experiment on HCT-15 colon; 9.87 µM in the experiment on HOP-62 NSCLC; 11.7 µM in the experiment on HT29 colon; 15.1 µM in the experiment with IGROV1 ovarian; 25.7 µM in the experiment with NCI-H226 lung. In addition, the TGI is 5.64 µM in the experiment with NCI-H23 lung, 7.55 µM in the experiment with SF-268 CNS, 5.81 µM in the experiment with SW-620 colon and 12.7 µM with UACC-62 melanoma.

With `CC(=O)OC1CC2CCC1(C)C2(C)C` (configuration not stated), the TGI in the experiment with ACHN renal, in the experiment on HCT-15 colon, in the experiment with HOP-62 NSCLC, in the experiment on HT29 colon, with IGROV1 ovarian and in the experiment with NCI-H226 lung was above 100 µM each time. The TGI with NCI-H23 lung, with SF-268 CNS, in the experiment with SW-620 colon and in the experiment on UACC-62 melanoma was above 100 µM throughout.

For `CN1CCC2(CC1)C(=O)N(N1CCCCCC1)C(=O)N2c1ccccc1`, the TGI with ACHN renal, in the experiment on HCT-15 colon, with HOP-62 NSCLC, in the experiment with HT29 colon, with IGROV1 ovarian and with NCI-H226 lung was above 100 µM each time. Moreover, the TGI in the experiment on NCI-H23 lung, with SF-268 CNS, with SW-620 colon and in the experiment on UACC-62 melanoma was above 100 µM in each case.

Take `CCOP(=O)(/C=C\n1cnc2c(=O)n(C(C)=O)c(N)nc21)OCC`: the TGI in the experiment on ACHN renal, in the experiment on HCT-15 colon, in the experiment on HOP-62 NSCLC, in the experiment on HT29 colon, in the experiment with IGROV1 ovarian and in the experiment with NCI-H226 lung was above 100 µM each time. Also, the TGI in the experiment on NCI-H23 lung, in the experiment with SW-620 colon and with UACC-62 melanoma was above 100 µM in each case.

For `CC(=O)O[C@H]1C[C@]2(C)C(CCC3O[C@@]32C)[C@@]2(CC(c3ccoc3)OC2O)[C@@H]1C` (some centres not stated), the TGI with ACHN renal, in the experiment with HCT-15 colon, in the experiment with HT29 colon, in the experiment on IGROV1 ovarian, in the experiment with NCI-H226 lung and in the experiment on NCI-H23 lung was above 100 µM in each case. The TGI in the experiment on SF-268 CNS, in the experiment with SW-620 colon and in the experiment on UACC-62 melanoma was above 100 µM in each case.

On to `O=C1NC2(CCCCC2)N=C2C(Cl)CCCC12Cl` (configuration not stated), for which the TGI in the experiment with ACHN renal, in the experiment on HCT-15 colon, with HOP-62 NSCLC, in the experiment on HT29 colon, in the experiment on IGROV1 ovarian and in the experiment on NCI-H226 lung was above 100 µM each time. The TGI with NCI-H23 lung, in the experiment on SF-268 CNS, with SW-620 colon and with UACC-62 melanoma was above 100 µM each time.

Regarding `CCOc1ccccc1/C=C1\NC(=O)N(/C=C2\C(=O)Oc3ccccc3C2=O)C1=O`, the TGI with ACHN renal, in the experiment with HCT-15 colon, with HOP-62 NSCLC, with HT29 colon, in the experiment on IGROV1 ovarian and with NCI-H226 lung was above 100 µM each time. The TGI was 95.5 µM in the experiment with NCI-H23 lung, above 100 µM with SF-268 CNS, above 100 µM in the experiment with SW-620 colon and above 100 µM with UACC-62 melanoma.

Regarding `CC(C)(C)c1ccc(CN2CCN(C(c3ccccc3)c3ccc(Cl)cc3)CC2)cc1` (configuration not stated), the TGI in the experiment with ACHN renal is above 100 µM; in the experiment on HCT-15 colon it was above 100 µM; with HOP-62 NSCLC, above 100 µM; in the experiment on HT29 colon, 56.9 µM; with IGROV1 ovarian, above 100 µM; in the experiment with NCI-H226 lung it was 62.2 µM. In addition, the TGI in the experiment on NCI-H23 lung, with SF-268 CNS, in the experiment with SW-620 colon and in the experiment with UACC-62 melanoma was above 100 µM in each case.

As for `O=c1[nH]c2ccc(CC(=S)N3CCOCC3)cc2s1`, the TGI with ACHN renal, with HCT-15 colon, in the experiment with HOP-62 NSCLC, with HT29 colon, with IGROV1 ovarian and in the experiment on NCI-H226 lung was above 100 µM each time. In addition, the TGI in the experiment on NCI-H23 lung, with SF-268 CNS, in the experiment on SW-620 colon and in the experiment with UACC-62 melanoma was above 100 µM throughout.

As for `c1ccc(N=C2SC(=NNc3ccccc3)SC2=Nc2ccccc2)cc1`, the TGI with ACHN renal, with HCT-15 colon, in the experiment on HOP-62 NSCLC, in the experiment with HT29 colon, with IGROV1 ovarian and in the experiment with NCI-H226 lung was above 100 µM throughout. In addition, the TGI in the experiment on NCI-H23 lung, in the experiment with SF-268 CNS, in the experiment with SW-620 colon and in the experiment with UACC-62 melanoma was above 100 µM throughout.

With `CN1C(c2ccccc2)=CC(=O)C(O)=C(c2ccccc2)S1(=O)=O`, the TGI in the experiment on ACHN renal, in the experiment with HCT-15 colon, with HOP-62 NSCLC, with HT29 colon, in the experiment on IGROV1 ovarian and in the experiment on NCI-H226 lung was above 100 µM in each case. The TGI in the experiment on NCI-H23 lung, with SF-268 CNS, in the experiment with SW-620 colon and in the experiment on UACC-62 melanoma was above 100 µM throughout.
